# Read-outs that look alike come from different tables or passages of the source.
# What was measured:
# [1] = tested on: β-catenin/TCF transcriptional activity in HCT116 cells; type: cell-based; details: HCT116, 24 hours of treatment
# Experimental: Cells were seeded at a density of 5 × 10^4 cells per well in 24-well tissue culture plates and incubated overnight at 37°C. Cells were transiently transfected with 0.1 μg TOP-FLASH constructs (Millipore) and 0.1 μg β-galactosidase-expressing vector (Promega). After 24 hours of transfection, cells were treated with ADT-094 or vehicle for 24 hours. At the end of treatment, cells were lysed and both luciferase and β-galactosidase activities were measured using kits from Promega. All luciferase activity was normalized to β-galactosidase activity.
# [2] = tested on: β-catenin signaling in HCT116 colon tumor cells; assay: Western blotting of β-catenin, cyclin D1, survivin, HCT116; type: cell-based, human
# Experimental: Western blotting was performed as described previously. Cells were treated with ADT-094 or vehicle for 8 hours before cell lysates were collected.
# [3] = tested on: cGMP PDE activity in HCT116 lysates; assay: cGMP hydrolysis in lysates from HCT116 colon tumor cells; type: biochemical, human; details: in words, Figure 1C
# Experimental: (§1) PDE activity was measured using the IMAP fluorescence polarization (FP) PDE assay (Molecular Devices) in which binding of hydrolyzed fluorescent cyclic nucleotide substrate to the IMAP reagent increases FP as described previously.
# HCT116 colon tumor cells = assay: Growth assay (Cell Titer Glo), HCT116; type: cell-based, human; details: for HCT116 colon tumor cell growth: in words, Figure 1B; for IC50: Homo sapiens, HCT-116, 72 h
# Experimental: All cell lines were expanded upon delivery, and numerous aliquots of low passage cells were preserved in liquid N2. Cells were passaged no longer than 2 months. Tumor cell lines obtained from ATCC were characterized by STR profiling as performed by ATCC. The NCM460 line was characterized by INCELL as described previously (e.g. tumorigenicity testing). No additional re-authentication of the cell lines was performed except for experimental reasons (e.g. confirmation of cell doubling time, morphology, sensitivity to SS, PDE5/10 expression levels, etc). Cells were plated in 96-well microtiter plates at a density of 5,000 cells per well. For drug treatment, cells were treated with compound or vehicle, and incubated at 37°C for 72 hours. […] For siRNA assays, cells were transfected with siRNA under the same condition described above. The effect of treatment on cell growth was measured using the Cell Titer Glo Assay as specified by the manufacturer (Promega). The IC50 values were determined as described previously. All experiments were repeated a minimum of three times to determine the reproducibility of the results. All error bars represent standard error of the mean (SEM). Statistical analysis of differences between samples was performed using the Student’s t-test.
# [4] = tested on: NCM460 normal colonocytes; details: as previously reported; cited from earlier work
# HT29 colon tumor cells = assay: Growth assay (Cell Titer Glo), HT29; type: cell-based; details: Homo sapiens, HT-29, 72 h
# Experimental: (§2) Human colon tumor cell lines, HCT116, HT29, SW480 and Caco-2 were obtained from the American Type Culture Collection (ATCC) and grown under standard cell culture conditions in RPMI 1640 medium containing 5% serum at 37°C in a humidified atmosphere with 5% CO2. The human colonocyte line, NCM460, that is derived from normal human colon mucosa was obtained from INCELL and grown in INCELL’s enriched M3:10 medium with 10% serum as recommended by supplier. All cell lines were expanded upon delivery, and numerous aliquots of low passage cells were preserved in liquid N2. Cells were passaged no longer than 2 months. Tumor cell lines obtained from ATCC were characterized by STR profiling as performed by ATCC. The NCM460 line was characterized by INCELL as described previously (e.g. tumorigenicity testing). No additional re-authentication of the cell lines was performed except for experimental reasons (e.g. confirmation of cell doubling time, morphology, sensitivity to SS, PDE5/10 expression levels, etc).
# (§3) Cells were plated in 96-well microtiter plates at a density of 5,000 cells per well. For drug treatment, cells were treated with compound or vehicle, and incubated at 37°C for 72 hours. All growth assays were performed in 5% serum unless otherwise noted. Deionized water was used as vehicle control for papaverine. For siRNA assays, cells were transfected with siRNA under the same condition described above. The effect of treatment on cell growth was measured using the Cell Titer Glo Assay as specified by the manufacturer (Promega).
# (§4) The IC50 values were determined as described previously. All experiments were repeated a minimum of three times to determine the reproducibility of the results. All error bars represent standard error of the mean (SEM). Statistical analysis of differences between samples was performed using the Student’s t-test. A P value of < 0.05 was considered statistically significant.
# PDE5 = target: T1, PDE5 (Homo sapiens, UniProt O76074); assay: IMAP fluorescence polarization PDE assay, recombinant PDE5; type: biochemical; details: recombinant enzyme
# T1 construct: purchased BPS Biosciences
# Experimental: (§5) Recombinant PDE isozymes were purchased from BPS Biosciences. The PDE10 antibody was purchased from GeneTex, while the PDE5 antibody was purchased from Cell Signaling Technologies. Non-targeting control siRNA and PDE10 specific siRNAs were purchased from Qiagen. RNAiMAX transfection reagent was purchased from Invitrogen. DMSO was used as vehicle for all compounds unless otherwise noted. All other reagents were purchased from Sigma.
# as §1, §4
# purified ovine COX-1 = target: T2, purified ovine COX-1 (Ovis aries, UniProt P05979); assay: COX-1 colorimetric assay; type: biochemical
# T2 construct: purchased Cayman
# T2 sequence (P05979 25-600): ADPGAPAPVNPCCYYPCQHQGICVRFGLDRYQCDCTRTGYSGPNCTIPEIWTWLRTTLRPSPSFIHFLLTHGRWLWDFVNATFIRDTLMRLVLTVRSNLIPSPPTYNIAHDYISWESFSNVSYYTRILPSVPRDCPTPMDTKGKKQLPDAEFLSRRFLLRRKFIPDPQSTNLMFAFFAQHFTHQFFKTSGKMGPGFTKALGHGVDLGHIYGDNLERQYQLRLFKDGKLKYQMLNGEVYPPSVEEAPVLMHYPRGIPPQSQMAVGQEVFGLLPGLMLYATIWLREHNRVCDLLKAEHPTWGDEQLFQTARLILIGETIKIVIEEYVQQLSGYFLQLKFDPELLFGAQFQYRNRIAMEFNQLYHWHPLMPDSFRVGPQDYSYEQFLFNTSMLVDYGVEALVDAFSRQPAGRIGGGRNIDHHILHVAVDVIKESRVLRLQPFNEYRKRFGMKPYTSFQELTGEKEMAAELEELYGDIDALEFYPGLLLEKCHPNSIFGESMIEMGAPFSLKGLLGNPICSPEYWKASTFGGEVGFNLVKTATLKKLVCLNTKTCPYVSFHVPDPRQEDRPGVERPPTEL
# Experimental: COX-1 and COX-2 activities were measured using purified ovine COX-1 and COX-2 with colorimetric assay kits obtained from Cayman as previously reported. The activities of COX-1 and COX-2 were measured after the addition of arachidonic acid and incubation at 25°C for 5 min by absorbance at 590 nm as specified by the manufacturer.
# as §4
# [5] = tested on: NCM460 normal colonocytes; assay: Growth assay (Cell Titer Glo), NCM460 normal colonocytes; type: cell-based, human; details: Homo sapiens, NCM460, 72 h, read-out: NCM460 growth IC50
# Experimental: as §2, §3, §4
# PDE10 = target: T3, PDE10 (Homo sapiens, UniProt Q9Y233); assay: IMAP fluorescence polarization PDE assay, recombinant PDE10; type: biochemical; details: recombinant enzyme
# T3 construct: purchased BPS Biosciences
# Experimental: as §5, §1, §4
# T3 sequence (Q9Y233 267-1055): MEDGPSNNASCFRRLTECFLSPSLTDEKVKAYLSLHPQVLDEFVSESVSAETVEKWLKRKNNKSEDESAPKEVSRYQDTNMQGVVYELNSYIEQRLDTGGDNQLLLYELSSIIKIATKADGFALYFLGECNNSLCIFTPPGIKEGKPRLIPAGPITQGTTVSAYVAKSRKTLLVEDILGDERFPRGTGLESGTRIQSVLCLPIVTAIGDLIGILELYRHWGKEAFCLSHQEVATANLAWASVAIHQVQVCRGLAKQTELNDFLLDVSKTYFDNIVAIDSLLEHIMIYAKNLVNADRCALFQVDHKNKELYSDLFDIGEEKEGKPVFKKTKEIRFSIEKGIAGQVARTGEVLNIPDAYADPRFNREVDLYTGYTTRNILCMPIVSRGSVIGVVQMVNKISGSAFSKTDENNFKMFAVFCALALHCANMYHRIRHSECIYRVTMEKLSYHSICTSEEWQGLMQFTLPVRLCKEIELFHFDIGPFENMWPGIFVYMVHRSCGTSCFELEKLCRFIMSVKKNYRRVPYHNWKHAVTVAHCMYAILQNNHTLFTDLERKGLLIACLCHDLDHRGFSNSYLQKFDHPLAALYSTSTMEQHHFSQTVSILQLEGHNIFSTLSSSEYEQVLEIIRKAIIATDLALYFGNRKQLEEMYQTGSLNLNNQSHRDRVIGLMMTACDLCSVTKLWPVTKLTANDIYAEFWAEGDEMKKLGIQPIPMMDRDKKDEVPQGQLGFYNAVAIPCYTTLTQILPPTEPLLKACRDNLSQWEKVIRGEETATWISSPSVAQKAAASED
Structure (SMILES),β-catenin/TCF transcriptional activity [1],expression of survivin [2],β-catenin levels [2],cGMP hydrolysis in HCT116 lysates [3],HCT116 colon tumor cell growth (HCT116 colon tumor cells),growth of colonocytes [4],"IC50 (HT29 colon tumor cells; read-out: HT29 growth IC50, 72 hours of treatment)","IC50 (HT29 colon tumor cells; read-out: HT29 growth IC50, Figure 3C, luciferase-based ATP assay, 72 hours)","IC50 (HCT116 colon tumor cells; read-out: HCT116 growth IC50, 72 hours of treatment)","IC50 (HCT116 colon tumor cells; read-out: HCT116 growth IC50, Figure 3C, luciferase-based ATP assay, 72 hours)",IC50 (PDE5),IC50 (purified ovine COX-1),IC50 [5],IC50 (PDE10)
"Clc1cccc(Nc2nnc(-c3ccccc3)c3ccccc23)c1 [MY5445, 1-(3-chlorophenylamino)-4-phenylphthalazine]",reduced,reduced,reduced,inhibited cGMP hydrolysis,effectively inhibit,did not significantly affect,,,,,,,,
COc1ccc(Cc2nccc3cc(OC)c(OC)cc23)cc1OC [papaverine],reduced,reduced,reduced,inhibited cGMP hydrolysis,effectively inhibit,did not significantly affect,,,,,,,,
"CSc1ccc(/C=C2/C(C)=C(CC(=O)O)c3cc(F)ccc32)cc1 [SS, Sulindac sulfide, reference compound]",,,,,,,68 µM,63.8 µM,51 µM,51.1 µM,38 µM,1.2 µM,> 100 µM,70 µM
